Series [1] relates to human dermal fibroblasts (HDFs). Kind of series: Centrosome amplification (CA) by microscopy, HDFs. In kind it is cell-based. The protocol: Consequently, CA was assessed in cultures treated with different concentrations of declustering drugs for 6, 12, 18, or 24 h and untreated controls via microscopy. Centrosomes were identified by γ-tubulin and centrin-2 colocalization at discrete foci. […] The peak percent CA detected over 24 h is shown in FIG. 6 (only statistically significant (P<0.05) increases over control values are represented in the Figures). Representative confocal micrographs of CA in interphase and mitotic cells, both control and drug treated, are depicted in FIG. 7. No significant correlations between the degree of CA (FIG. 5A) and the expression levels of PLK4, Cyclin E, and Aurora A were found (FIG. 4).
To determine whether the CA-inducing activity of declustering drugs is restricted to cancer cells, two non-malignant cell lines, mammary fibrocystic (MCF10A) cells and adult human dermal fibroblasts were treated with these drugs. Neither one of RBN, GF or PJ induced CA or cell death (Table 8) in these cell lines. […] In comparison, 10 and 25 μM RBN increased peak CA over controls in interphase cells (p<0.001 and p=0.001, respectively), with the lower concentration dramatically augmenting peak CA to 56% of cells versus 15% for the higher dose (FIG. 9B). Only 10 but not 25 μM RBN increased the extent of CA in mitotic cells, and this upregulation was only slight (10%, p=0.041).

Another series relates to MDA-MB-231 (231) cells. Description: subG1 (hypodiploid) fraction by flow cytometry, 231 cells. In kind it is cell-based. How it is done:
Trypsinized cells were resuspended in PBS at 10^6 cells/ml. Cells were then fixed by addition of ice-cold 70% ethanol. Ethanol-fixed cells were kept overnight at 4° C. before staining. Cells were pelleted and washed twice with PBS. Cell pellets were incubated for an hour at room temperature with mouse anti-MPM-2 antibody (Millipore, Mass., USA), followed by 1 h incubation with Alexa-488 anti-mouse secondary antibody (Life Technologies, NY, USA). Finally cells were washed, pelleted and resuspended in propidium iodide-containing isotonic buffer (0.1 mg/mL) and 0.5% Triton X-100. Cell cycle distribution was determined by flow cytometry using an LSR Fortessa Flow cytometer (BD Biosciences, CA, USA) and analyzed using Flowjo software (Tree Star, OR, USA). […] The duration, highest degree, and rapidity of onset of MA varied between drugs, drug concentrations, and cell lines (FIGS. 2A, 2B). In general, the maximum MA achieved was less pronounced in Nos- and PJ-treated cells (FIGS. 2A, 2B). Drug-induced onset of MA was corroborated by substantial increases in cyclin B1 levels in all cell lines (FIG. 2C). […] Instances where the subG1 fraction was elevated without cleaved caspase-3 may either represent caspase-independent cell death or the presence of hypodiploid cells whose fate is unclear.
A general note: Flow cytometry measures light scatter and fluorescence of single cells or particles in a stream.

The subject of series [2] is human ovarian cancer xenografts. Conditions: nude mice carrying human ovarian cancer xenografts; cited from earlier work.
Another series deals with HeLa cells. Kind of series: Centrosome amplification (CA) by microscopy, HeLa cells. In kind it is cell-based. How it is done:
Consequently, CA was assessed in cultures treated with different concentrations of declustering drugs for 6, 12, 18, or 24 h and untreated controls via microscopy. […] The peak percent CA detected over 24 h is shown in FIG. 6 (only statistically significant (P<0.05) increases over control values are represented in the Figures). Representative confocal micrographs of CA in interphase and mitotic cells, both control and drug treated, are depicted in FIG. 7. […] To better understand the “potency” of drug-induced CA with time, the average fold change in CA over controls over 24 h was assessed (FIG. 5A), whereby the extent of CA across time points (i.e., 6, 12, 18, and 24 h) was averaged and then divided by the extent of CA in control (i.e., 0 h). […] For Nos and BN, there was no major difference in CA levels in interphase versus mitotic cells.

The subject of series [3] is MDA-MB-231 (231), PC3, and HeLa cells. Description: Mitotic arrest (MA) by flow cytometry (MPM2/PI), across cell lines. Conditions: coarse-grained categories. In kind it is cell-based. How it is done: Trypsinized cells were resuspended in PBS at 10^6 cells/ml. Cells were then fixed by addition of ice-cold 70% ethanol. Ethanol-fixed cells were kept overnight at 4° C. before staining. Cells were pelleted and washed twice with PBS. Cell pellets were incubated for an hour at room temperature with mouse anti-MPM-2 antibody (Millipore, Mass., USA), followed by 1 h incubation with Alexa-488 anti-mouse secondary antibody (Life Technologies, NY, USA). Finally cells were washed, pelleted and resuspended in propidium iodide-containing isotonic buffer (0.1 mg/mL) and 0.5% Triton X-100. Cell cycle distribution was determined by flow cytometry using an LSR Fortessa Flow cytometer (BD Biosciences, CA, USA) and analyzed using Flowjo software (Tree Star, OR, USA).
To evaluate the impact of putative declustering drugs on cell cycle progression and hypodiploidy (<2N DNA content, which may indicate apoptotic cells), MDA-MB-231 (231), PC3, and HeLa cells were treated with different concentrations of declustering drugs, stained with propidium iodide, labeled with anti-MPM2 antibody, and then assessed by flow cytometry at multiple time points over 48 h. […] The duration, highest degree, and rapidity of onset of MA varied between drugs, drug concentrations, and cell lines (FIGS. 2A, 2B). In general, the maximum MA achieved was less pronounced in Nos- and PJ-treated cells (FIGS. 2A, 2B). […]

The test system of a further series is HDFs and MCF10A cells. Kind of series: Spindle multipolarity (MP) in non-malignant cell lines. In kind it is cell-based.

As for reduced bromonoscapine [RBN], in series [1] (10 μM), the “peak CA in interphase cells” value stood at 56%. The “peak CA in interphase cells” value in series [1] (25 μM) worked out at 15%. Also, the “extent of CA in mitotic cells” value in series [1] (mitotic, 10 μM) was determined as 10%. For the same substance, in the series with MDA-MB-231 (231) cells (10 μM), the “Peak subG1 percent over 48 h” value was 47.0%. For the same substance, in the series on MDA-MB-231 (231) cells (25 μM), the “Peak subG1 percent over 48 h” value is 80.8% and the “maximum subG1 fraction relative to control” value is given as 25 × control. Further, in series [2], the “toxicity in normal tissues” value was “toxicity was not detected in normal tissues” and the tumor progression result is given as “inhibited tumor progression”. For the same substance, in the series on HeLa cells (interphase, 10 μM), the “peak extent of CA in interphase cells” value turned out to be 30.7%. In the series with HeLa cells (interphase, 25 μM), the “peak / final extent of CA in interphase cells” value was determined as 48.1%. For the same substance, in the series on HeLa cells (10 μM), the “cells having CA, mitotic cells” value turned out to be 78% and the “fold increase of CA, mitotic cells” value was “approximately 40 fold”. In the series with HeLa cells (25 μM), the “cells having CA, mitotic cells” value is 42% and the “fold increase of CA, mitotic cells” value is reported as approximately 20 fold. For the same substance, the “peak MA (MA:HR), cells in MA” value in series [3] is reported as not below 30%. Also, in the series with HDFs and MCF10A cells, the “induction of MP over control levels” value is on record as “significantly induce MP over control levels”.

Source of the values: US20150309031A2, “COMPOSITIONS AND METHODS FOR PROGNOSIS AND TREATMENT OF CANCER” (NOVAZOI THERANOSTICS, priority 2013, published 2015).
